Results as given in patent US9107851B2, “Solventless mixing process for coating pharmaceutical ingredients” (New Jersey Institute of Technology, priority 2012, dated 2015).

Test: USP dissolution test (Apparatus II paddles, pH 7.2 phosphate buffer with SDS, 37° C.)
Assay type: physicochemical
Settings: for Time to dissolve: uncoated; for Initial dissolution rate (—): grinding pressure 0
Protocol: The coated API core particles have the taste of the API masked to allow easy swallowing or even chewing by patients. The API is still released from the coated API core particles in relatively short time. A USP Dissolution Test may be used to assess the release of API from the coated API core particles. The dissolution test employs a media of 7.2 pH phosphate buffer solution with 0.4 g/L sodium dodecyl sulfate (SDS, used to ensure wetting of the powders) at 37° C. and is carried out in USP Apparatus II (paddles) rotating at 50 RPM. The percentage of active pharmaceutical ingredient that is dissolved is measured over time. The coated API core particles can release the API in 30 minutes or less as measured in the USP Dissolution test, or in 20 minutes or less as measured in the USP dissolution test.

Time to dissolve (Example 23: 45 μm-63 μm): 10 s | Time to dissolve (Example 23: 90 μm-125 μm): less than 20 seconds | Time to dissolve (Example 23: 150 μm-250 μm): less than 60 seconds | Time to dissolve (Example 23: 425 μm-500 μm): less than 60 seconds | Initial dissolution rate (—) (ascorbic acid initial d50 93 μm): 9.16 | Initial dissolution rate (—) (ascorbic acid initial d50 192 μm): 7.764 | Initial dissolution rate (—) (ascorbic acid initial d50 341 μm): 4.053
Compound: O=C1O[C@H]([C@@H](O)CO)C(O)=C1O [ascorbic acid]
